Like-named read-outs stand apart in the source and are kept apart here.
Biological target: human α7 nAChR (Homo sapiens (Human), UniProt P36544)
Assay: Automated patch-clamp electrophysiology functional assay (Assay A), IonFlux HT
Format: cell-based
Conditions: HEK cell line stably expressing human RIC-3 and human α7, whole-cell population patch, 40 μM acetylcholine
Protocol: The α7 nAChR positive allosteric modulator (PAM) activity of the present compounds may be tested using assays known in the art. The α7 nAChR PAMs described herein have activities in an automated patch-clamp electrophysiology functional assay as described in the examples. The assay was performed using the IonFlux HT in a whole-cell, population patch configuration. See Golden et al. Assay Drug Dev. Technol. (2011) 9:608-619. The compounds were assessed for their ability to modulate the function of the human α7 nAChR stably expressed in a HEK cell line both in the presence, and in the absence of the natural α7 agonist acetylcholine. By performing a series of such measurements at different concentrations, the effective concentration of the α7 nAChR PAMs (EC50) was determined. See Spencer et al. Assay Drug Dev. Technol. (2012) 10:313-324.
Automated patch-clamp electrophysiology was performed using the IonFlux HT (Fluxion Biosciences Inc., San Francisco, Calif.) in the whole-cell, population patch configuration. Test compounds were assessed for their ability to modulate the function of the α7 nicotinic acetylcholine receptor both in the presence, and in the absence of the natural α7 agonist acetylcholine. A HEK cell line stably expressing both human RIC-3 and human α7 (PrecisION hnAChR α7/RIC-3, Eurofins Pharma, St. Charles, Mo.) was cultured in 175 cm^2 triple-layer tissue culture flasks to no more than 90% confluency in DMEM/F-12 growth media supplemented with 10% heat-inactivated fetal bovine serum, 1% non-essential amino acids, 0.625 μg/mL Puromycin, and 400 μg/mL Geneticin. Immediately prior to assay, cells were detached by first aspirating growth media, rinsing with Dulbecco's phosphate buffered saline, and then adding 10 mL of Accutase (Innovative Cell Technologies, San Diego, Calif.) to the flask and then incubating at 37° C. for 5 minutes. Detached cells were then recovered by the addition of 40 mL of CHO-serum-free media supplemented with 25 mM HEPES, and rocked gently in a 50 mL conical tube for 20 minutes prior to patch-clamp assay. After recovery, cells were pelleted by centrifugation at 1,000 RPM for 1 minute in a compact bench top centrifuge; recovery media was aspirated and cells were resuspended in external recording solution (150 mM NaCl, 5 mM KCl, 2 mM CaCl2, 1 mM MgCl2, 10 mM HEPES, 12 mM dextrose) to a density of 5.0×10^6 cells/mL. The cell suspension was added to the cell inlet wells on an IonFlux HT population patch plate which had previously been rinsed and primed with deionized H2O. Test compounds were serially diluted in DMSO and then resuspended to the final test concentration in external recording solution, with, or without 40 μM acetylcholine added to the external recording solution; test compounds were then transferred to the IonFlux HT population patch plate. Internal recording solution (110 mM TrisPO4, 28 mM TrisBase, 0.1 mM CaCl2, 2 mM MgCl2, 11 mM EGTA, 4 mM MgATP) was added to the internal recording solution inlet wells on the IonFlux HT patch plate previously loaded with cells and test compounds, and the plate loaded into the IonFlux HT instrument. A protocol was executed on the IonFlux HT to trap the cells, break into the cells, and establish the whole-cell recording configuration; cells were voltage-clamped at a holding potential of −60 mV for the duration of the experiment, all experiments were conducted at room temperature, and the IonFlux HT injection pressure was 8 psi for solution applications. Upon establishing the whole-cell configuration, external recording solution was perfused into the recording chambers for 120 seconds and then 40 μM acetylcholine was applied for 1 second and immediately washed off with external recording solution for 60 seconds. The 40 μM acetylcholine-evoked α7 current served as the current response to which subsequent test compound effects, in the presence, or in the absence of 40 μM acetylcholine would be quantified relative to. […]

human α7 nAChR, sequence (P36544 23-502): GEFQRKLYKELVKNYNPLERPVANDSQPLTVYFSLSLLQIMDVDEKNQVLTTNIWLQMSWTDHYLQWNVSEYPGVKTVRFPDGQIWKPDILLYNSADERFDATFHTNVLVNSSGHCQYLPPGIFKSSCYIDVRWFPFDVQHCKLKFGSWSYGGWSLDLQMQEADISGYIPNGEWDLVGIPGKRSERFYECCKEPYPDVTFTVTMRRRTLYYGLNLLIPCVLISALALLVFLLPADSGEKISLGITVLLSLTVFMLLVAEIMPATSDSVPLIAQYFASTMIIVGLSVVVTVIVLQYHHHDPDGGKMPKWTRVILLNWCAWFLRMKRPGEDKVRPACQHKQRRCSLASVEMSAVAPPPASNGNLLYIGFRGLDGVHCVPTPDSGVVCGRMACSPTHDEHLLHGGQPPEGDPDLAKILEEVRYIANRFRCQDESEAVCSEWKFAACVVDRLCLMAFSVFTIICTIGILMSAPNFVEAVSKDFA

| Molecule | EC50 (read-out: α7 nAChR Potency) | EC50 (read-out: α7 nAChR EC50) |
| --- | --- | --- |
| NS(=O)(=O)c1ccc([C@@H]2C[C@H]2c2cccc(C3CCCC3)n2)cc1 (racemic) [Example A12, 4-[trans-2-(6-Cyclopentylpyridin-2-yl)cyclopropyl]benzenesulfonamide] | 100 to 500 nM |  |
| CC(C)c1cccc(C2CC2c2ccc(S(N)(=O)=O)cc2)n1 (single isomer, unassigned) [Example 1, 4-{trans-2-[6-(Propan-2-yl)pyridin-2-yl]cyclopropyl}benzenesulfonamide] | 100 to 500 nM | 500 nM |
| CC(C)c1cncc(C2CC2c2ccc(S(N)(=O)=O)cc2)n1 (racemic) [Example B3, 4-{trans-2-[6-(Propan-2-yl)pyrazin-2-yl]cyclopropyl}benzenesulfonamide] | 500 to 5000 nM |  |
| tert-Butyl 4-{4-[trans-2-(4-sulfamoylphenyl)cyclopropyl]pyrimidin-2-yl}piperazine-1-carboxylate [Example D4] | 500 to 5000 nM | 720 nM |
| CC(C)c1ccc(C2CC2c2ccc(S(N)(=O)=O)cc2)nc1 (single isomer, unassigned) [Example A5, 4-{trans-2-[5-(Propan-2-yl)pyridin-2-yl]cyclopropyl}benzenesulfonamide] | 500 to 5000 nM |  |
| CC(C)c1ccc(C2CC2c2ccc(S(N)(=O)=O)cc2)nn1 (racemic) [Example B2, 4-{trans-2-[6-(Propan-2-yl)pyridazin-3-yl]cyclopropyl}benzenesulfonamide] | 5000 to 50000 nM | 8800 nM |
| CC(C)c1ccc(C2C(c3ccc(S(N)(=O)=O)cc3)C2[Si](C)(C)C)cn1 (centres unmarked) [Example B1, 4-{2-[6-(Propan-2-yl)pyridin-3-yl]-3-(trimethylsilyl)cyclopropyl}benzenesulfonamide] | 500 to 5000 nM | 1600 nM |
| NS(=O)(=O)c1ccc([C@@H]2C[C@H]2c2cccc(C3CCOCC3)n2)cc1 (racemic) [Example A9, 4-{trans-2-[6-(Tetrahydro-2H-pyran-4-yl)pyridin-2-yl]cyclopropyl}benzenesulfonamide] | 5000 to 50000 nM | 5600 nM |

Next, values leading:

| EC50 (read-out: α7 nAChR Potency) | EC50 (read-out: α7 nAChR EC50) | Molecule |
| --- | --- | --- |
| 500 to 5000 nM | 1100 nM | NS(=O)(=O)c1ccc(C2CC2c2ccnc(NCCc3ccccc3)n2)cc1 (racemic) [Example D10, 4-(trans-2-{2-[(2-Phenylethyl)amino]pyrimidin-4-yl}cyclopropyl)benzenesulfonamide] |
| 500 to 5000 nM | 2900 nM | CN(C)c1nccc(C2CC2c2ccc(S(N)(=O)=O)cc2)n1 (racemic) [Example D1, 4-{trans-2-[2-(Dimethylamino)pyrimidin-4-yl]cyclopropyl}benzenesulfonamide] |
| 500 to 5000 nM | 3300 nM | NS(=O)(=O)c1ccc([C@@H]2C[C@H]2c2nccc(-c3cncc(C(F)(F)F)c3)n2)cc1 (single isomer, unassigned) [Example C5, 4-(trans-2-{4-[5-(trifluoromethyl)pyridin-3-yl]pyrimidin-2-yl}cyclopropyl)benzenesulfonamide] |
| 500 to 5000 nM |  | NS(=O)(=O)c1ccc(C2CC2c2ccnc(-c3ccccc3)n2)cc1 (racemic) [Example D9, 4-[trans-2-(2-Phenylpyrimidin-4-yl)cyclopropyl]benzenesulfonamide] |
| 100 to 500 nM | 500 nM | NS(=O)(=O)c1ccc([C@@H]2C[C@H]2c2ccnc(C3CCC3)c2)cc1 (racemic) [Example E3, 4-[trans-2-(2-Cyclobutylpyridin-4-yl)cyclopropyl]benzenesulfonamide] |
| 500 to 5000 nM | 1900 nM | NS(=O)(=O)c1ccc([C@@H]2C[C@H]2c2nccc(-c3cccc(F)c3)n2)cc1 (single isomer, unassigned) [Example C4, 4-{trans-2-[4-(3-fluorophenyl)pyrimidin-2-yl]cyclopropyl}benzenesulfonamide] |
| 500 to 5000 nM | 3400 nM | CC(C)(C#N)c1ccc([C@@H]2C[C@H]2c2ccc(S(N)(=O)=O)cc2)cn1 (racemic) [Example G5, 4-{trans-2-[6-(2-Cyanopropan-2-yl)pyridin-3-yl]cyclopropyl}benzenesulfonamide] |

From patent publication US11026958B2, “Substituted 6-membered aryl or heteroaryl allosteric modulators of nicotinic acetylcholine receptors” (Merck Sharp & Dohme Corp., priority 2016, dated 2021)
